{"source": "patent US10828290B2", "about": "“Thiazolecarboxamides and pyridinecarboxamide compounds useful as pim kinase inhibitors” (Incyte Corporation, priority 2013, dated 2020)", "assay_type_in_all_cases": "biochemical", "key": {"Pim-2": {"biological_target": "Pim-2 (Homo sapiens (Human), UniProt Q9P1W9)", "sequence (Q9P1W9 whole entry)": "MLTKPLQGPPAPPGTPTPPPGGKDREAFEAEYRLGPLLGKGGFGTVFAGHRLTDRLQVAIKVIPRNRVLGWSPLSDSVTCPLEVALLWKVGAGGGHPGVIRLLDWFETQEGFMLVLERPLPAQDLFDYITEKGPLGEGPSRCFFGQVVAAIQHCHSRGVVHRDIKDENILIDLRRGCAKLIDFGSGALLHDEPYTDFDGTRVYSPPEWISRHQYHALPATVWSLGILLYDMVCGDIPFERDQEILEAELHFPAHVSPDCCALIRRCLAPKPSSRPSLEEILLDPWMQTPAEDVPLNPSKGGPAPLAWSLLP", "test": "Pim-2 kinase assay", "experimental": "Pim-2 kinase assay—20 μL reactions were run in white 384 well polystyrene plates dotted with 0.8 μL compound/DMSO in the assay buffer (50 mM Tris, pH 7.5, 0.01% Tween-20, 5 mM MgCl2, 0.01% BSA, 5 mM DTT), containing 0.05 μM Fluorescein-labeled CREBtide peptide substrate (Invitrogen PV3508), 1 mM ATP, and 1 nM enzyme (Invitrogen PV3649) for 2 h at 25° C. Reactions were stopped by addition of 10 μL TR-FRET Dilution Buffer (Invitrogen PV3574) with 30 mM EDTA and 1.5 nM LanthaScreen Tb-CREB pSer133 antibody (Invitrogen PV3566). After 30 min. incubation at room temperature, plates were read on a PHERAstar FS plate reader (BMG Labtech).\nAlthough the above in vitro assays are conducted at 1 mM ATP compounds can also be evaluated for potency and in vitro activity against PIM targets utilizing Km conditions, where the concentration of ATP is set to the Km value and the assay is more sensitive to PIM inhibition activity."}, "Pim-3": {"biological_target": "Pim-3 (Homo sapiens (Human), UniProt Q86V86)", "test": "Pim-3 kinase assay", "details": "1 mM ATP; class symbols; read-out: Pim3 IC50", "experimental": "Pim-1 and Pim-3 kinase assays—20 μL reactions were run in white 384 well polystyrene plates dotted with […] in the assay buffer (50 mM Tris, pH 7.5, 0.01% Tween-20, 5 mM MgCl2, 0.01% BSA, 5 mM DTT), containing 0.05 μM Biotin-labeled BAD peptide substrate (AnaSpec 62269), 1 mM ATP, and 2.5 pM (Pim-1, Invitrogen PV3503) or 1.25 pM (Pim-3, Millipore 14-738) enzyme for 1 h at 25° C. Reactions were stopped by addition of 10 μL STOP Buffer (150 mM Tris, pH=7.5, 150 mM NaCl, 75 mM EDTA, 0.01% Tween-20, 0.3% BSA) supplemented with Phospho-Bad (Ser112) Antibody (Cell Signaling 9291) diluted 666-fold, and Streptavidin donor beads (PerkinElmer 6760002) along with Protein-A acceptor beads (PerkinElmer 6760137) at 15 μg/mL each. Supplementation of the STOP buffer with beads and stopping the reactions were done under reduced light. Prior to the stopping reactions STOP buffer with beads was pre-incubated for 1 h in the dark at room temperature. After stopping the reactions, plates were incubated for 1 h in the dark at room temperature before reading on a PHERAstar FS plate reader (BMG Labtech) under reduced light."}, "Pim-1": {"biological_target": "Pim-1 (Homo sapiens (Human), UniProt P11309)", "sequence (P11309 whole entry)": "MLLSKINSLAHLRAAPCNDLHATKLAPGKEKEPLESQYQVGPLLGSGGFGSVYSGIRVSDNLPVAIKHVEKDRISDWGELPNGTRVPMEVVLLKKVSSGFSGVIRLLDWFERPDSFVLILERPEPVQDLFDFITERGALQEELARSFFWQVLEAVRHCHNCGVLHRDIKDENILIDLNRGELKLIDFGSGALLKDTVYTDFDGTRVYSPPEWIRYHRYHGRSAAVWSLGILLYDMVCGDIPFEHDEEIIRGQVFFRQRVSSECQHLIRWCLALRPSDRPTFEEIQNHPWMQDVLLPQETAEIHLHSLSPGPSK", "test": "Pim-1 kinase assay", "details": "1 mM ATP; class symbols; read-out: Pim1 IC50", "experimental": "Supplementation of the STOP buffer with beads and stopping the reactions were done under reduced light. Prior to the stopping reactions STOP buffer with beads was pre-incubated for 1 h in the dark at room temperature. After stopping the reactions, plates were incubated for 1 h in the dark at room temperature before reading on a PHERAstar FS plate reader (BMG Labtech) under reduced light."}}, "note": "Where two headings read alike, the source gives them in different places."}
{"compound": "N[C@H]1CCCN(c2c(NC(=O)c3csc(-c4c(F)cccc4F)n3)cnc3ccccc23)C1", "note": "[Example 2, N-{4-[(3S)-3-Aminopiperidin-1-yl]quinolin-3-yl}-2-(2,6-difluorophenyl)-1,3-thiazole-4-carboxamide]", "values": [{"measurement": "IC50", "setting": "Pim-2; Km ATP concentration rather than 1 mM, read-out: Pim2 IC50 at Km ATP concentration", "result": "100 to 1000", "unit": "nM"}]}
{"compound": "C[C@H]1CN(c2c(NC(=O)c3ccc(F)c(-c4c(F)cccc4F)n3)cnc3c2CCC3O)C[C@@H](N)[C@@H]1O", "note": "(mixture of isomers) [Example 37 (mixture of diastereoisomers), N-{4-[(3R,4R,5S)-3-Amino-4-hydroxy-5-methylpiperidin-1-yl]-7-hydroxy-6,7-dihydro-5H-cyclopenta[b]pyridin-3-yl}-6-(2,6-difluorophenyl)-5-fluoropyridine-2-carboxamide]", "values": [{"measurement": "IC50", "setting": "Pim-3", "result": "≤ 100", "unit": "nM"}, {"measurement": "IC50", "setting": "Pim-1", "result": "≤ 100", "unit": "nM"}, {"measurement": "IC50", "setting": "Pim-2; 1 mM ATP, class symbols, read-out: Pim2 IC50", "result": "≤ 100", "unit": "nM"}]}
